Measurements reported in ChEMBL document CHEMBL4406866, “Design, synthesis and evaluation of 5-(4-hydroxyphenyl)-3H-1,2-dithiole-3-thione-Based fibrates as potential hypolipidemic and hepatoprotective agents” (Bioorg Med Chem Lett, 2019).
Activity calls are given as the source filed them. The rule behind the calls is not given here.

Key:
[1] = Drug metabolism in po dosed mouse plasma assessed as H2S release by measuring hydrogen sulfide level administered for 7 days and measured following 12 hrs fasting on day 7 (reference value: 52.9 +/- 5.4 umol/L); type: ADME, organism-based; settings: in vivo
[2] = Drug metabolism in po dosed mouse liver assessed as H2S release by measuring hydrogen sulfide level administered for 7 days and measured following 12 hrs fasting on day 7 (reference value: 93.8 +/- 6.1 nmol/g); type: ADME, organism-based; settings: in vivo
[3] = organism: Mus musculus; settings: at 13 mg/kg
Description: Hypolipidemic activity in Triton WR1339-induced hyperlipidemia mouse model assessed as decrease in serum TG level at 13 mg/kg, ig administered for one week and administered with Triton WR 1339 on day 6 and measured after 24 hrs

[4] = tested on: Rattus norvegicus; assay: Hypolipidemic activity in Met-induced hyperlipidemia rat model assessed as decrease in serum TG level at 9 mg/kg, po administered with compound for last 30 days during feeding of 0.2% Met solution for 60 days; type: functional, organism-based
[5] = tested on: Rattus norvegicus; assay: Hypolipidemic activity in Met-induced hyperlipidemia rat model assessed as decrease in serum TC level at 9 mg/kg, po administered with compound for last 30 days during feeding of 0.2% Met solution for 60 days; type: functional, organism-based
[6] = tested on: Rattus norvegicus; assay: Hypolipidemic activity in Met-induced hyperlipidemia rat model assessed as decrease in atherosclerosis index at 9 mg/kg, po administered with compound for last 30 days during feeding of 0.2% Met solution for 60 days; type: functional, organism-based
[7] = tested on: Rattus norvegicus; assay: Antioxidant activity in Met-induced hyperlipidemia rat model assessed as increase in serum SOD level at 9 mg/kg, po administered with compound for last 30 days during feeding of 0.2% Met solution for 60 days; type: functional, organism-based
[8] = tested on: Rattus norvegicus; assay: Antioxidant activity in Met-induced hyperlipidemia rat model assessed as increase in serum T-AOC level at 9 mg/kg, po administered with compound for last 30 days during feeding of 0.2% Met solution for 60 days; type: functional, organism-based
[9] = tested on: Rattus norvegicus; assay: Antioxidant activity in Met-induced hyperlipidemia rat model assessed as decrease in serum MDA level at 9 mg/kg, po administered with compound for last 30 days during feeding of 0.2% Met solution for 60 days; type: functional, organism-based
[10] = tested on: Rattus norvegicus; assay: Antiinflammatory activity in Met-induced hyperlipidemia rat model assessed as decrease in serum TNF-alpha level at 9 mg/kg, po administered with compound for last 30 days during feeding of 0.2% Met solution for 60 days by ELISA; type: functional, organism-based
[11] = tested on: Rattus norvegicus; assay: Antiinflammatory activity in Met-induced hyperlipidemia rat model assessed as decrease in serum IL-6 level at 9 mg/kg, po administered with compound for last 30 days during feeding of 0.2% Met solution for 60 days by ELISA; type: functional, organism-based
[12] = tested on: Rattus norvegicus; assay: Hepatoprotective activity in Met-induced hyperlipidemia rat model assessed as decrease in serum AST level at 9 mg/kg, po administered with compound for last 30 days during feeding of 0.2% Met solution for 60 days; type: functional, organism-based
[13] = tested on: Rattus norvegicus; assay: Hepatoprotective activity in Met-induced hyperlipidemia rat model assessed as decrease in serum ALT level at 9 mg/kg, po administered with compound for last 30 days during feeding of 0.2% Met solution for 60 days; type: functional, organism-based
[14] = tested on: Rattus norvegicus; assay: Hepatoprotective activity in Met-induced hyperlipidemia rat model assessed as decrease in red lipid droplets in hepatocytes at 9 mg/kg, po administered with compound for last 30 days during feeding of 0.2% Met solution for 60 days by oil red O-staining based microscopic analysis; type: functional, organism-based
[15] = tested on: Rattus norvegicus; assay: Hepatoprotective activity in Met-induced hyperlipidemia rat model assessed as improvement in hepatic tissue hemorrhagic symptoms at 9 mg/kg, po administered with compound for last 30 days during feeding of 0.2% Met solution for 60 days by microscopic analysis; type: functional, organism-based
[16] = tested on: Rattus norvegicus; assay: Hepatoprotective activity in Met-induced hyperlipidemia rat model assessed as decrease in inflammatory cell infiltration in liver at 9 mg/kg, po administered with compound for last 30 days during feeding of 0.2% Met solution for 60 days by microscopic analysis; type: functional, organism-based
[17] = tested on: Rattus norvegicus; assay: Vasorelaxation activity in Met-induced hyperlipidemia rat model assessed as effect on serum ET-1 level at 9 mg/kg, po administered with compound for last 30 days during feeding of 0.2% Met solution for 60 days; type: functional, organism-based
[18] = tested on: Rattus norvegicus; assay: Hypolipidemic activity in Met-induced hyperlipidemia rat model assessed as decrease in serum Hcy level at 9 mg/kg, po administered with compound for last 30 days during feeding of 0.2% Met solution for 60 days; type: functional, organism-based
[19] = Drug metabolism in Met-induced hyperlipidemia rat model assessed as H2S release by measuring increase in serum hydrogen sulfide level at 9 mg/kg, po administered with compound for last 30 days during feeding of 0.2% Met solution for 60 days; type: ADME, organism-based; settings: in vivo
[20] = tested on: Rattus norvegicus; assay: Upregulation of PPAR-alpha protein expression in liver of Met-induced hyperlipidemia rat model at 9 mg/kg, po administered with compound for last 30 days during feeding of 0.2% Met solution for 60 days; type: functional, organism-based
[21] = organism: Mus musculus; settings: at 13 mg/kg; remark: listed apart in the source
Description: Hypolipidemic activity in Triton WR1339-induced hyperlipidemia mouse model assessed as decrease in serum TC level at 13 mg/kg, ig administered for one week and administered with Triton WR 1339 on day 6 and measured after 24 hrs

[22] = organism: Mus musculus; settings: at 13 mg/kg; remark: listed apart in the source
Description: Hypolipidemic activity in Triton WR1339-induced hyperlipidemia mouse model assessed as decrease in serum MDA level at 13 mg/kg, ig administered for one week and administered with Triton WR 1339 on day 6 and measured after 24 hrs

[23] = tested on: Rattus norvegicus; assay: Hypolipidemic activity in Met-induced hyperlipidemia rat model assessed as increase in serum hydrogen sulfide level at 9 mg/kg, po administered with compound for last 30 days during feeding of 0.2% Met solution for 60 days; type: functional, organism-based

Drug metabolism [1]	Drug metabolism [2]	Compound	inhibition [3]	inhibition [21]	inhibition [22]	other results
119.3 µmol/L	164.8 nmol/g	COC(=O)C(C)Oc1ccc(-c2cc(=S)ss2)cc1 (stereo unspecified)	Active			
113.4 µmol/L	165.6 nmol/g	COC(=O)C(C)(C)Oc1ccc(-c2cc(=S)ss2)cc1	Active	Active	Active	inhibition [4]: Active; inhibition [5]: Active; inhibition [6]: Active; Activity [7]: Active; Activity [8]: Active; inhibition [9]: Active; inhibition [10]: Active; inhibition [11]: Active; Activity [12]: Active; Activity [13]: Active; Activity [14]: Active; Activity [15]: Active; Activity [16]: Active; Activity [17]: inactive; inhibition [18]: Active; Drug metabolism [19]: Metabolite_Detected; Activity [20]: Active
184.6 µmol/L	181.3 nmol/g	COc1ccc(-c2cc(=S)ss2)cc1 [ANETHOLTRITHION]	inactive	inactive	Active	

The next lines start with the molecule.

Compound	Drug metabolism [1]	Drug metabolism [2]	inhibition [3]	inhibition [21]	inhibition [22]	other results
CCC(Oc1ccc(-c2cc(=S)ss2)cc1)C(=O)OC (stereo unspecified)	128.8 µmol/L	159.5 nmol/g	Active		Active	
COC(=O)CCCOc1ccc(-c2cc(=S)ss2)cc1	95.5 µmol/L	130.5 nmol/g	Active	Active	Active	
COC(=O)CCCCOc1ccc(-c2cc(=S)ss2)cc1	86.5 µmol/L	155.5 nmol/g	Active	Active		
CC(C)OC(=O)C(C)(C)Oc1ccc(C(=O)c2ccc(Cl)cc2)cc1						Activity [12]: Active; Activity [13]: inactive; Activity [14]: Active; Activity [20]: Active; Activity [23]: Active
COC(=O)CCCCCOc1ccc(-c2cc(=S)ss2)cc1	93.7 µmol/L	132.1 nmol/g	Active			
